{
  "source": "PubChem BioAssay AID1259407",
  "about": "(Chemical Carcinogenesis Research Information System (CCRIS), 2018)",
  "system": "CCRIS mutagenicity, Ames/micronucleus/aberration tests",
  "assay": "CCRIS mutagenicity studies",
  "details": "Test System: AMES SALMONELLA TYPHIMURIUM",
  "key": {"[1]": {"details": "Strain/Indicator: TA97, Metabolic Activation: HAMSTER, LIVER, S-9, AROCLOR 1254 (10%), Method: PREINCUBATION"}, "[2]": {"details": "Strain/Indicator: TA97, Metabolic Activation: NONE, Method: PREINCUBATION"}, "[3]": {"details": "Strain/Indicator: TA97, Metabolic Activation: RAT, LIVER, S-9, AROCLOR 1254 (10%), Method: PREINCUBATION"}, "[4]": {"details": "Strain/Indicator: TA98, Metabolic Activation: HAMSTER, LIVER, S-9, AROCLOR 1254 (10%), Method: PREINCUBATION"}, "[5]": {"details": "Strain/Indicator: TA98, Metabolic Activation: NONE, Method: PREINCUBATION"}, "[6]": {"details": "Strain/Indicator: TA98, Metabolic Activation: NONE, Method: STANDARD PLATE"}, "[7]": {"details": "Strain/Indicator: TA98, Metabolic Activation: RAT, LIVER, S-9, AROCLOR 1254 (10%), Method: PREINCUBATION"}, "[8]": {"details": "Strain/Indicator: TA100, Metabolic Activation: HAMSTER, LIVER, S-9, AROCLOR 1254 (10%), Method: PREINCUBATION"}, "[9]": {"details": "Strain/Indicator: TA100, Metabolic Activation: NONE, Method: PREINCUBATION"}, "[10]": {"details": "Strain/Indicator: TA100, Metabolic Activation: NONE, Method: STANDARD PLATE"}, "[11]": {"details": "Strain/Indicator: TA100, Metabolic Activation: RAT, LIVER, S-9, AROCLOR 1254 (10%), Method: PREINCUBATION"}, "[12]": {"details": "Strain/Indicator: TA1535, Metabolic Activation: HAMSTER, LIVER, S-9, AROCLOR 1254 (10%), Method: PREINCUBATION"}, "[13]": {"details": "Strain/Indicator: TA1535, Metabolic Activation: NONE, Method: PREINCUBATION"}, "[14]": {"details": "Strain/Indicator: TA1535, Metabolic Activation: RAT, LIVER, S-9, AROCLOR 1254 (10%), Method: PREINCUBATION"}},
  "note": "The source made the active and inactive calls. The rule behind the calls is not given here.",
  "data": [
    {"molecule": "ClCC(Cl)Cl", "values": [
      {"measurement": "mutagenic call", "setting": "[1]", "result": "inactive; negative"},
      {"measurement": "mutagenic call", "setting": "Strain/Indicator: TA97, Metabolic Activation: HAMSTER, LIVER, S-9, AROCLOR 1254 (30%), Method: PREINCUBATION", "result": "inactive; negative"},
      {"measurement": "mutagenic call", "setting": "[2]", "result": "inactive; negative"},
      {"measurement": "mutagenic call", "setting": "Strain/Indicator: TA97, Metabolic Activation: NONE, Method: STANDARD PLATE", "result": "active; positive"},
      {"measurement": "mutagenic call", "setting": "[3]", "result": "inactive; negative"},
      {"measurement": "mutagenic call", "setting": "Strain/Indicator: TA97, Metabolic Activation: RAT, LIVER, S-9, AROCLOR 1254 (30%), Method: PREINCUBATION", "result": "inactive; negative"},
      {"measurement": "mutagenic call", "setting": "Strain/Indicator: TA97, Metabolic Activation: RAT, LIVER, S-9, AROCLOR 1254, Method: STANDARD PLATE", "result": "active; positive"},
      {"measurement": "mutagenic call", "setting": "[4]", "result": "inactive; negative"},
      {"measurement": "mutagenic call", "setting": "Strain/Indicator: TA98, Metabolic Activation: HAMSTER, LIVER, S-9, AROCLOR 1254 (30%), Method: PREINCUBATION", "result": "inactive; negative"},
      {"measurement": "mutagenic call", "setting": "[5]", "result": "inactive; negative"},
      {"measurement": "mutagenic call", "setting": "[6]", "result": "inactive; negative"},
      {"measurement": "mutagenic call", "setting": "[7]", "result": "inactive; negative"},
      {"measurement": "mutagenic call", "setting": "Strain/Indicator: TA98, Metabolic Activation: RAT, LIVER, S-9, AROCLOR 1254 (30%), Method: PREINCUBATION", "result": "inactive; negative"},
      {"measurement": "mutagenic call", "setting": "Strain/Indicator: TA98, Metabolic Activation: RAT, LIVER, S-9, AROCLOR 1254, Method: STANDARD PLATE", "result": "inactive; negative"},
      {"measurement": "mutagenic call", "setting": "[8]", "result": "inactive; negative"},
      {"measurement": "mutagenic call", "setting": "Strain/Indicator: TA100, Metabolic Activation: HAMSTER, LIVER, S-9, AROCLOR 1254 (30%), Method: PREINCUBATION", "result": "inactive; negative"},
      {"measurement": "mutagenic call", "setting": "[9]", "result": "inactive; negative"},
      {"measurement": "mutagenic call", "setting": "[10]", "result": "active; positive"},
      {"measurement": "mutagenic call", "setting": "[11]", "result": "inactive; negative"},
      {"measurement": "mutagenic call", "setting": "Strain/Indicator: TA100, Metabolic Activation: RAT, LIVER, S-9, AROCLOR 1254 (30%), Method: PREINCUBATION", "result": "inactive; negative"},
      {"measurement": "mutagenic call", "setting": "Strain/Indicator: TA100, Metabolic Activation: RAT, LIVER, S-9, AROCLOR 1254, Method: STANDARD PLATE", "result": "inactive; negative"},
      {"measurement": "mutagenic call", "setting": "Strain/Indicator: TA104, Metabolic Activation: NONE, Method: STANDARD PLATE", "result": "inactive; negative"},
      {"measurement": "mutagenic call", "setting": "Strain/Indicator: TA104, Metabolic Activation: RAT, LIVER, S-9, AROCLOR 1254, Method: STANDARD PLATE", "result": "active; positive"},
      {"measurement": "mutagenic call", "setting": "[12]", "result": "inactive; negative"},
      {"measurement": "mutagenic call", "setting": "Strain/Indicator: TA1535, Metabolic Activation: HAMSTER, LIVER, S-9, AROCLOR 1254 (30%), Method: PREINCUBATION", "result": "inactive; negative"},
      {"measurement": "mutagenic call", "setting": "[13]", "result": "inactive; negative"},
      {"measurement": "mutagenic call", "setting": "[14]", "result": "inactive; negative"},
      {"measurement": "mutagenic call", "setting": "Strain/Indicator: TA1535, Metabolic Activation: RAT, LIVER, S-9, AROCLOR 1254 (30%), Method: PREINCUBATION", "result": "inactive; negative"},
      {"measurement": "mutagenic call", "setting": "Strain/Indicator: TA1537, Metabolic Activation: HAMSTER, LIVER, S-9, AROCLOR 1254 (10%), Method: PREINCUBATION", "result": "inactive; negative"},
      {"measurement": "mutagenic call", "setting": "Strain/Indicator: TA1537, Metabolic Activation: HAMSTER, LIVER, S-9, AROCLOR 1254 (30%), Method: PREINCUBATION", "result": "inactive; negative"},
      {"measurement": "mutagenic call", "setting": "Strain/Indicator: TA1537, Metabolic Activation: NONE, Method: PREINCUBATION", "result": "inactive; negative"},
      {"measurement": "mutagenic call", "setting": "Strain/Indicator: TA1537, Metabolic Activation: RAT, LIVER, S-9, AROCLOR 1254 (10%), Method: PREINCUBATION", "result": "inactive; negative"},
      {"measurement": "mutagenic call", "setting": "Strain/Indicator: TA1537, Metabolic Activation: RAT, LIVER, S-9, AROCLOR 1254 (30%), Method: PREINCUBATION", "result": "inactive; negative"}
    ]},
    {"molecule": "Cc1ccc2ccc3c4ccccc4cc4ccc1c2c43", "values": [
      {"measurement": "mutagenic call", "setting": "Strain/Indicator: TA100, Metabolic Activation: RAT, INTACT HEPATOCYTES, AROCLOR 1254, Method: PREINCUBATION", "result": "active; positive"},
      {"measurement": "mutagenic call", "setting": "Strain/Indicator: TA100, Metabolic Activation: RAT, NADPH-FORTIFIED HOMOGENIZED HEPATOCYTES, AROCLOR 1254, Method: PREINCUBATION", "result": "active; positive"}
    ]},
    {"molecule": "CC(=O)Nc1ccc(Oc2ccc(NO)cc2)cc1", "values": [
      {"measurement": "mutagenic call", "setting": "Strain/Indicator: TA98(1,8-DNP6), Metabolic Activation: NONE, Method: PREINCUBATION", "result": "active; positive"},
      {"measurement": "mutagenic call", "setting": "Strain/Indicator: TA98(1,8-DNP6), Metabolic Activation: RAT, LIVER, S-9, AROCLOR 1254, Method: PREINCUBATION", "result": "active; positive"},
      {"measurement": "mutagenic call", "setting": "Strain/Indicator: TA98(NR), Metabolic Activation: NONE, Method: PREINCUBATION", "result": "active; positive"},
      {"measurement": "mutagenic call", "setting": "Strain/Indicator: TA98(NR), Metabolic Activation: RAT, LIVER, S-9, AROCLOR 1254, Method: PREINCUBATION", "result": "active; positive"},
      {"measurement": "mutagenic call", "setting": "[5]", "result": "active; positive"},
      {"measurement": "mutagenic call", "setting": "Strain/Indicator: TA98, Metabolic Activation: RAT, LIVER, S-9, AROCLOR 1254, Method: PREINCUBATION", "result": "active; positive"},
      {"measurement": "mutagenic call", "setting": "Strain/Indicator: TA100(NR), Metabolic Activation: NONE, Method: PREINCUBATION", "result": "active; positive"},
      {"measurement": "mutagenic call", "setting": "[9]", "result": "active; positive"}
    ]},
    {"molecule": "CC/C=C1\\OC(=O)c2ccccc21", "values": [
      {"measurement": "mutagenic call", "setting": "[1]", "result": "inactive; negative"},
      {"measurement": "mutagenic call", "setting": "[2]", "result": "inactive; negative"},
      {"measurement": "mutagenic call", "setting": "[3]", "result": "inactive; negative"},
      {"measurement": "mutagenic call", "setting": "[4]", "result": "inactive; negative"},
      {"measurement": "mutagenic call", "setting": "[5]", "result": "inactive; negative"},
      {"measurement": "mutagenic call", "setting": "[7]", "result": "inactive; negative"},
      {"measurement": "mutagenic call", "setting": "[8]", "result": "inactive; negative"},
      {"measurement": "mutagenic call", "setting": "[9]", "result": "inactive; negative"},
      {"measurement": "mutagenic call", "setting": "[11]", "result": "active; positive"},
      {"measurement": "mutagenic call", "setting": "[12]", "result": "inactive; negative"},
      {"measurement": "mutagenic call", "setting": "[13]", "result": "inactive; negative"},
      {"measurement": "mutagenic call", "setting": "[14]", "result": "inactive; negative"}
    ]},
    {"molecule": "COc1cc(O)c2c(O)c3c(=O)oc(C)cc3c(OC)c2c1", "values": [
      {"measurement": "mutagenic call", "setting": "Strain/Indicator: TA98, Metabolic Activation: MOUSE, LIVER, S-9, AROCLOR 1254, Method: STANDARD PLATE", "result": "active; positive"},
      {"measurement": "mutagenic call", "setting": "[6]", "result": "active; positive"},
      {"measurement": "mutagenic call", "setting": "Strain/Indicator: TA100, Metabolic Activation: MOUSE, LIVER, S-9, AROCLOR 1254, Method: STANDARD PLATE", "result": "active; positive"},
      {"measurement": "mutagenic call", "setting": "[10]", "result": "active; positive"},
      {"measurement": "mutagenic call", "setting": "Strain/Indicator: TA102, Metabolic Activation: MOUSE, LIVER, S-9, AROCLOR 1254, Method: STANDARD PLATE", "result": "active; positive"},
      {"measurement": "mutagenic call", "setting": "Strain/Indicator: TA102, Metabolic Activation: NONE, Method: STANDARD PLATE", "result": "active; positive"}
    ]}
  ]
}
